Tests used:
[1] = test system: parent strain ABM201; assay: Growth of parent strain on Vincent's YEM agar amended with glyphosate; type: cell-based, Bradyrhizobium japonicum
Procedure: (§1) After the plates were sufficiently dry, about 10^8 to 5×10^8 colony-forming units (CFU) of the parent bacteria (ABM201) (Advanced Biological Marketing, Van Wert, Ohio), determined by serial dilution and plating on nonselective medium, were spread with a sterile, bent glass rod. The plates were carefully wrapped with Parafilm® to prevent the desiccation of the agar growth medium during prolonged incubation. The plates were then incubated at room temperature to 30° C. for approximately 2 to 3 weeks.

[2] = test system: herbicide resistant mutants of B. japonicum strain ABM 201; assay: Growth of glyphosate-resistant mutant on Vincent's YEM agar amended with glyphosate; type: cell-based, Bradyrhizobium japonicum; conditions: 80 ppm glyphosate; exemplary embodiment (resistant mutant)
Procedure: as §1
Colonies that developed resembled the parent strain and its growth characteristics on non-selective YEM medium. The colonies were convex, entirely opaque, smooth, and only about 1 mm in diameter after 10-14 days of incubation. Mutant frequency was about 5×10^−7 to 1×10^−6.

O=C(O)CNCP(=O)(O)O [glyphosate, N-(phosphonomethyl)glycine]
glyphosate concentration that totally inhibits the parent strain [1]: less than 40 ppm
growth and viability on glyphosate [2]: normal growth and viability
